Tests used:
Type in all cases: in vivo
[1] = tested on: Eiysiphe graminis f. sp. tritici; experiment: Test A: wheat powdery mildew, preventive spray on wheat seedlings; conditions: wheat seedlings sprayed to run-off, inoculated the following day; rating relative to controls; unmarked compounds (standard test rate)
Outline: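 Compounds (3% acetone, 250 ppm Trem 014) sprayed to run-off on wheat seedlings, inoculated next day with spore dust. Incubated 7 days at 20° C before disease rating, 0–100% control relative to untreated controls.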

[2] = tested on: Puccinia recondita; experiment: Test B: wheat leaf rust, preventive spray on wheat seedlings; conditions: wheat seedlings sprayed to run-off, inoculated the following day; rating relative to controls; unmarked compounds (standard test rate)
Outline: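 Wheat seedlings were sprayed to run-off with compound (3% acetone, 250 ppm Trem 014), then inoculated with P. recondita spores the next day. They were held 24 h saturated at 20 °C, then 6 days at 20 °C. Ratings are 0–100% disease control versus controls.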

[3] = tested on: Pyricularia oryzae; conditions: rice seedlings sprayed to run-off, inoculated the following day; rating relative to controls; unmarked compounds (standard test rate)
[4] = tested on: Phytophthora infestans; conditions: tomato seedlings sprayed to run-off, inoculated the following day; rating relative to controls; unmarked compounds (standard test rate)
[5] = tested on: Botrytis cinerea; experiment: Test E: gray mold, preventive spray on cucumber seedlings; conditions: cucumber seedlings sprayed to run-off, inoculated the following day; rating relative to controls; unmarked compounds (standard test rate)
Outline: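 Compounds in 3% acetone were suspended with 250 ppm Trem 014 surfactant and sprayed to run-off on cucumber seedlings. B. cinerea spores were inoculated next day, then 48 h saturated humidity at 20° C and 5 days at 20° C. Disease control rated 0–100% versus controls.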

| Structure (SMILES) | Test A disease control rating (100 = 100% disease control, 0 = no disease control) [1] | Test B disease control rating (100 = 100% disease control, 0 = no disease control) [2] | Test C disease control rating (100 = 100% disease control, 0 = no disease control) [3] | Test D disease control rating (100 = 100% disease control, 0 = no disease control) [4] | Test E disease control rating (100 = 100% disease control, 0 = no disease control) [5] |
| --- | --- | --- | --- | --- | --- |
| CC(COc1c(Cl)cccc1C#N)NC(=O)C(C#N)C(C)C(C)(C)C (mixture of isomers) [compound 281] | 56% | 0% | 53% | 0% | 0% |
| C=CC(C)(C)C(C#N)C(=O)NC(C)COc1cc(C)ccc1F (mixture of isomers) [compound 282] | 0% | 0% | 100% | 24% | 0% |
| C=CCC(C#N)C(=O)NC(C)C(Oc1cc(F)ccc1F)c1ccccc1 (mixture of isomers) [compound 283] | 0% | 0% | 99% | 0% | 0% |
| C=CCC(C#N)C(=O)NC(C)C(Oc1cc(F)ccc1C#N)c1ccccc1 (mixture of isomers) [compound 284] | 0% | 0% | 99% | 0% | 0% |
| C=CCC(C#N)C(=O)NC(C)C(Oc1ccccc1C#N)c1ccccc1 (mixture of isomers) [compound 285] | 59% | 0% | 97% | 0% | 0% |
| CCC(C#N)C(=O)NC(C)C(Oc1cc(F)ccc1C#N)c1ccccc1 (mixture of isomers) [compound 286] | 76% | 0% | 99% | 0% | 0% |
| CCCC(C#N)C(=O)NC(C)C(Oc1cc(F)ccc1C#N)c1ccccc1 (mixture of isomers) [compound 287] | 0% | 0% | 97% | 23% | 0% |
| CCCC(C#N)C(=O)NC(C)C(Oc1ccccc1C#N)c1ccccc1 (mixture of isomers) [compound 288] | 33% | 0% | 86% | 0% | 0% |
| CC(C)C(C#N)C(=O)NC(C)C(Oc1cc(F)ccc1C#N)c1ccccc1 (mixture of isomers) [compound 289] | 0% | 0% | 90% | 45% | 0% |
| CC(C)C(C#N)C(=O)NC(C)C(Oc1ccccc1C#N)c1ccccc1 (mixture of isomers) [compound 290] | 59% | 0% | 90% | 0% | 0% |
| CC(NC(=O)C(C#N)C(C)(C)C)C(Oc1ccccc1C#N)c1ccccc1 (mixture of isomers) [compound 291] | 0% | 0% | 90% | 0% | 0% |
| CC(COc1cc(F)ccc1OC(F)F)NC(=O)C(C#N)C(C)(C)C (mixture of isomers) [compound 292] | 0% | 0% | 99% | 46% | 0% |
| C=CC(C)(C)C(C#N)C(=O)NC(C)COc1cc(F)ccc1OC(F)F (mixture of isomers) [compound 294] | 0% | 0% | 99% | 24% | 0% |
| C#CC(C)(C)C(C#N)C(=O)NC(C)COc1cc(F)ccc1OC(F)F (mixture of isomers) [compound 295] | 0% | 0% | 100% | 0% | 0% |
| C=CC(C)(CC)C(C#N)C(=O)NC(C)COc1cc(F)ccc1F (mixture of isomers) [compound 296] | 0% | 0% | 100% | 24% | 0% |
| C=CC(C)(CC)C(C#N)C(=O)NC(C)COc1cc(Cl)ccc1F (mixture of isomers) [compound 297] | 0% | 0% | 100% | 46% | 0% |
| C=CC(C)(CC)C(C#N)C(=O)NC(C)COc1cc(F)ccc1Cl (mixture of isomers) [compound 298] | 62% | 0% | 99% | 99% | 0% |
| C#CC(C)(C=C)C(C#N)C(=O)NC(C)COc1cc(F)ccc1F (mixture of isomers) [compound 301] | 62% | 0% | 100% | 24% | 0% |
| C#CC(C)(C=C)C(C#N)C(=O)NC(C)COc1cc(Cl)ccc1F (mixture of isomers) [compound 302] | 0% | 0% | 99% | 24% | 0% |
| C#CC(C)(C=C)C(C#N)C(=O)NC(C)COc1cc(F)ccc1Cl (mixture of isomers) [compound 303] | 0% | 0% | 99% | 100% | 0% |
| CC(COc1cc(C(C)(C)C)ccc1C#N)NC(=O)C(C#N)C(C)(C)C (mixture of isomers) [compound 305] | 0% | 0% | 53% | 0% | 0% |
| CCC(C)c1ccccc1OCC(C)NC(=O)C(C#N)C(C)(C)C (mixture of isomers) [compound 306] | 0% | 67% | 99% | 0% | 94% |

Source: patent US6642392B1 (priority 1997, dated 2003)
